Data published in ChEMBL document CHEMBL1201862, “PubChem BioAssay data set” (2004).
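Assay format: 96-well plates, 48-hour exposure. GI50 = concentration required for 50% inhibition of growth.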 The source made the active and inactive calls. Cut-off read from the data, not from the text of the source: active = GI50 up to about 1.1 µM and inactive = higher.

What was measured:
Test in all cases: NCI-60 cell line screen, 48 h
SN12C = test system: SN12C
SK-OV-3 = test system: SK-OV-3
HCT-116 = test system: HCT-116
SNB-78 = test system: SNB-78
NCI-H460 = test system: NCI-H460
HL-60 = test system: HL-60
HOP-62 = test system: HOP-62
RXF 631 = test system: RXF 631
COLO 205 = test system: COLO 205
MOLT-4 = test system: MOLT-4
DMS-114 = test system: DMS-114
NCI-H23 = test system: NCI-H23
CAKI-1 = test system: CAKI-1
IGROV-1 = test system: IGROV-1
CCRF-CEM = test system: CCRF-CEM
RPMI-8226 = test system: RPMI-8226
SF-268 = test system: SF-268
HOP-92 = test system: HOP-92
DLD-1 = test system: DLD-1
K562 = test system: K562
786-0 = test system: 786-0
UO-31 = test system: UO-31
HCC 2998 = test system: HCC 2998
ACHN = test system: ACHN
SR = test system: SR
DMS-273 = test system: DMS-273
Malme-3M = test system: Malme-3M
M14 = test system: M14
SF-539 = test system: SF-539
UACC-62 = test system: UACC-62
LXFL 529 = test system: LXFL 529
SK-MEL-28 = test system: SK-MEL-28
SNB-75 = test system: SNB-75
NCI-H522 = test system: NCI-H522
OVCAR-4 = test system: OVCAR-4
NCI-H226 = test system: NCI-H226
A498 = test system: A498
M19-MEL = test system: M19-MEL
SK-MEL-2 = test system: SK-MEL-2
OVCAR-3 = test system: OVCAR-3
HCT-15 = test system: HCT-15
SK-MEL-5 = test system: SK-MEL-5
OVCAR-5 = test system: OVCAR-5
HT-29 = test system: HT-29
KM-20L2 = test system: KM-20L2
U-251 = test system: U-251
KM12 = test system: KM12
SNB-19 = test system: SNB-19
XF498 = test system: XF498
HOP-18 = test system: HOP-18
OVCAR-8 = test system: OVCAR-8
RXF 393 = test system: RXF 393
EKVX = test system: EKVX
SF-295 = test system: SF-295
A549 = test system: A549
UACC-257 = test system: UACC-257
LOX IMVI = test system: LOX IMVI
TK-10 = test system: TK-10
SW-620 = test system: SW-620

## COc1cc([C@H]2Oc3cc(O)c4c(=O)cc(-c5ccc(O)cc5)oc4c3O[C@@H]2CO)ccc1O
SN12C
  GI50: > 10 µM (inactive)
SK-OV-3
  GI50: 14.6 µM (inactive)
HCT-116
  GI50: 13.5 µM (inactive)
SNB-78
  GI50: 14.6 µM (inactive)
NCI-H460
  GI50: 4.54 µM (inactive)
HL-60
  GI50: 18.8 µM (inactive)
HOP-62
  GI50: 14.5 µM (inactive)
RXF 631
  GI50: 10.6 µM (inactive)
COLO 205
  GI50: 15.2 µM (inactive)
MOLT-4
  GI50: 18.7 µM (inactive)
DMS-114
  GI50: 15.9 µM (inactive)
NCI-H23
  GI50: 14.6 µM (inactive)
CAKI-1
  GI50: 15.1 µM (inactive)
IGROV-1
  GI50: 19.7 µM (inactive)
CCRF-CEM
  GI50: 13.6 µM (inactive)
RPMI-8226
  GI50: 16.1 µM (inactive)
SF-268
  GI50: 2.28 µM (inactive)
HOP-92
  GI50: 25.5 µM (inactive)
DLD-1
  GI50: 15.3 µM (inactive)
K562
  GI50: 23.4 µM (inactive)
786-0
  GI50: 15.3 µM (inactive)
UO-31
  GI50: 12.6 µM (inactive)
HCC 2998
  GI50: 15 µM (inactive)
ACHN
  GI50: 12.9 µM (inactive)
SR
  GI50: 15.3 µM (inactive)
DMS-273
  GI50: 14.2 µM (inactive)
Malme-3M
  GI50: 18.8 µM (inactive)
M14
  GI50: 16.8 µM (inactive)
SF-539
  GI50: > 10 µM (inactive)
UACC-62
  GI50: 11.1 µM (inactive)
LXFL 529
  GI50: 15.1 µM (inactive)
SK-MEL-28
  GI50: 14.5 µM (inactive)
SNB-75
  GI50: 5.45 µM (inactive)
NCI-H522
  GI50: 4.76 µM (inactive)
OVCAR-4
  GI50: 20.1 µM (inactive)
NCI-H226
  GI50: 18.5 µM (inactive)
A498
  GI50: 16.8 µM (inactive)
M19-MEL
  GI50: 17.7 µM (inactive)
SK-MEL-2
  GI50: 16.1 µM (inactive)

## NC(=O)N1N=C2c3ccccc3OC[C@H]2[C@@H]1c1ccccc1
SN12C
  GI50: 23.9 µM (inactive)
SK-OV-3
  GI50: 8.95 µM (inactive)
HCT-116
  GI50: 5.6 µM (inactive)
SNB-78
  GI50: > 38.5 µM (inactive)
NCI-H460
  GI50: 13.2 µM (inactive)
OVCAR-3
  GI50: 20.9 µM (inactive)
HL-60
  GI50: 22.6 µM (inactive)
HCT-15
  GI50: 5.55 µM
SK-MEL-5
  GI50: 1.91 µM (inactive)
OVCAR-5
  GI50: 20.1 µM (inactive)
HT-29
  GI50: 27.6 µM (inactive)
KM-20L2
  GI50: 23.4 µM (inactive)
HOP-62
  GI50: 23.8 µM (inactive)
COLO 205
  GI50: 18.2 µM (inactive)
MOLT-4
  GI50: 29.5 µM (inactive)
DMS-114
  GI50: 7.53 µM (inactive)
NCI-H23
  GI50: 22.6 µM (inactive)
CAKI-1
  GI50: 35.6 µM (inactive)
U-251
  GI50: 5.14 µM (inactive)
KM12
  GI50: 9.31 µM (inactive)
IGROV-1
  GI50: 18.8 µM (inactive)
CCRF-CEM
  GI50: 13.4 µM (inactive)
RPMI-8226
  GI50: 8.89 µM (inactive)
SNB-19
  GI50: 31.6 µM (inactive)
XF498
  GI50: 10.7 µM (inactive)
SF-268
  GI50: 9.86 µM (inactive)
HOP-92
  GI50: 13.8 µM (inactive)
HOP-18
  GI50: 18.7 µM (inactive)
OVCAR-8
  GI50: 5.07 µM (inactive)
DLD-1
  GI50: 6.5 µM (inactive)
RXF 393
  GI50: 2.72 µM (inactive)
K562
  GI50: 14.4 µM (inactive)
EKVX
  GI50: 35.2 µM (inactive)
786-0
  GI50: 5.02 µM (inactive)
SF-295
  GI50: 4.21 µM (inactive)
UO-31
  GI50: 42.4 µM (inactive)
HCC 2998
  GI50: 10.7 µM (inactive)
ACHN
  GI50: 5.68 µM (inactive)
A549
  GI50: 5.4 µM (inactive)
UACC-257
  GI50: 10.9 µM (inactive)
SR
  GI50: 6.31 µM (inactive)
DMS-273
  GI50: 9.1 µM (inactive)
LOX IMVI
  GI50: 26.1 µM (inactive)
TK-10
  GI50: 52.4 µM (inactive)
Malme-3M
  GI50: 21.1 µM (inactive)
M14
  GI50: 2.07 µM (inactive)
SF-539
  GI50: 3.92 µM (inactive)
UACC-62
  GI50: 3.78 µM (inactive)
LXFL 529
  GI50: 31 µM (inactive)
SK-MEL-28
  GI50: 25.5 µM (inactive)
SNB-75
  GI50: 16.6 µM (inactive)
NCI-H522
  GI50: 3.3 µM (inactive)
OVCAR-4
  GI50: 33.7 µM (inactive)
NCI-H226
  GI50: 22.5 µM (inactive)
SW-620
  GI50: 4.99 µM (inactive)
A498
  GI50: 16.4 µM (inactive)
M19-MEL
  GI50: 49.7 µM (inactive)
SK-MEL-2
  GI50: 27.6 µM (inactive)
